Patent US3981865A, “Bis-type penicillins and process for producing the same” (Toyama Chemical Co., Ltd., priority 1974, dated 1976)
≈ marks a conversion by molar mass, not a printed value.

Legend:
[1] = test system: Pseudomonas aeruginosa I.F.O.; experiment: MIC by plate method, standard strains; format: cell-based; details: Heart infusion agar pH 7.4, inoculum 10^4 cells per plate (10^6 cells/ml.), unit assumed
Protocol: (§1) The minimum inhibitory concentration (MIC) was determined by the plate method disclosed in "Chemotherapy" (Japan), Vol. 16, (1968), pages 98 - 99. The culture medium used was a Heart infusion agar (pH 7.4). The number of the cells per plate used in the inoculum was 10^4 (10^6 cells/ml.).

Escherchia coli NIHJ = experiment: MIC by plate method, standard strains; format: cell-based; details: Heart infusion agar pH 7.4, inoculum 10^4 cells per plate (10^6 cells/ml.), unit assumed
Protocol: as §1

Klebsiella pneumoniae = experiment: MIC by plate method, standard strains; format: cell-based; details: Heart infusion agar pH 7.4, inoculum 10^4 cells per plate (10^6 cells/ml.), unit assumed
Protocol: as §1

[2] = test system: Staphylococcus aureus 209P; experiment: MIC by plate method, standard strains; format: cell-based; details: Heart infusion agar pH 7.4, inoculum 10^4 cells per plate (10^6 cells/ml.), unit assumed
Protocol: as §1

Proteus vulgaris 3027 = experiment: MIC by plate method, standard strains; format: cell-based; details: Heart infusion agar pH 7.4, inoculum 10^4 cells per plate (10^6 cells/ml.), unit assumed
Protocol: as §1

[3] = test system: β-lactamase from Escherchia coli 33; experiment: Resistant activity against β-lactamase, iodometric assay; format: biochemical; details: β-lactamase hydrolysis, relative to Potassium Penicillin G = 100
Protocol: (§2) 3. Resistant activity against β-lactamase, Pseudomonas aeruginosa GN 238 and Escherchia coli 33:
(§3) The resistant activity of each compound against β-lactamase was measured in the manner described below.
(§4) β-Lactamase was prepared from Pseudomonas aeruginosa GN 238 and Escherchia coli 33. This microorganism was cultured in 100 ml. of a medium containing 2 g. of yeast extract, 10 g. of polypeptone, 2 g. of glucose, 7 g. of disodium hydrogen phosphate, 2 g. of potassium dihydrogen phosphate, 1.2 g. of ammonium sulfate and 0.4 g. of magnesium sulfate, per liter, in a 500-ml. Erlenmeyer flask for 6 hrs. at 37°C with shaking. The resulting cells were collected by centrifugation (5,000 r.p.m. × 10 min.), washed three times with 0.1 M phosphate buffer (pH 7.0). Subsequently, the cells were subjected to sonication (20 KHz, 20 min.) and then centrifuged at 15,000 r.p.m. for 60 min. By using the supernatant of enzyme fluid, the resistance of each compound against β-lactamase was determined by the iodometric assay method. Each numeral shown in Table 3 is a relative activity value calculated by assuming as 100 the activity of the control Potassium Penicillin G.

[4] = test system: β-lactamase from Pseudomonas aeruginosa GN 238; experiment: as above; format: biochemical; details: β-lactamase hydrolysis, relative to Potassium Penicillin G = 100
Protocol: as §2, §3, §4

[5] = test system: Pseudomonas aeruginosa clinical isolates; experiment: MIC by plate method, clinical isolates of bacteria; format: cell-based; details: for MIC Pseudomonas aeruginosa GN 82: clinical isolate GN 82, Heart infusion agar pH 7.4, unit assumed; for MIC Pseudomonas aeruginosa GN 163: clinical isolate GN 163, Heart infusion agar pH 7.4, unit assumed; for MIC Pseudomonas aeruginosa GN 221: clinical isolate GN 221, Heart infusion agar pH 7.4, unit assumed; for MIC Pseudomonas aeruginosa GN 264: clinical isolate GN 264, Heart infusion agar pH 7.4, unit assumed; for MIC Pseudomonas aeruginosa GN 376: clinical isolate GN 376, Heart infusion agar pH 7.4, unit assumed; for MIC Pseudomonas aeruginosa GN 383: clinical isolate GN 383, Heart infusion agar pH 7.4, unit assumed; for MIC Pseudomonas aeruginosa GN 1035: clinical isolate GN 1035, Heart infusion agar pH 7.4, unit assumed; for MIC Pseudomonas aeruginosa GN 1091: clinical isolate GN 1091, Heart infusion agar pH 7.4, unit assumed; for MIC Pseudomonas aeruginosa GN 2565: clinical isolate GN 2565, Heart infusion agar pH 7.4, unit assumed; for MIC Pseudomonas aeruginosa GN 2987: clinical isolate GN 2987, Heart infusion agar pH 7.4, unit assumed; for MIC Pseudomonas aeruginosa S-2: clinical isolate S-2, Heart infusion agar pH 7.4, unit assumed; for MIC Pseudomonas aeruginosa S-3: clinical isolate S-3, Heart infusion agar pH 7.4, unit assumed; for MIC Pseudomonas aeruginosa S-4: clinical isolate S-4, Heart infusion agar pH 7.4, unit assumed
Protocol: as §1
MIC was determined in the same manner as in the preceding paragraph (1).

[6] = Acute toxicity LD50 i.v. in mouse; details: in vivo, iv; i.v. in mouse having a weight of 19 ± 1 g.
Excerpt: The present penicillins have generally low toxicity.

Structure (SMILES) | MIC Pseudomonas aeruginosa I.F.O. [1] [µg/mL] | MIC Escherchia coli NIHJ (Escherchia coli NIHJ) [µg/mL] | MIC Klebsiella pneumoniae (Klebsiella pneumoniae) [µg/mL] | MIC Staphylococcus aureus 209P [2] [µg/mL] | MIC Proteus vulgaris 3027 (Proteus vulgaris 3027) [µg/mL] | Relative activity (%) Escherchia coli 33 [3] [%] | Relative activity (%) Pseudomonas aeruginosa GN238 [4] [%] | other results
CC1(C)S[C@@H]2[C@H](NC(=O)[C@H](NC(=O)NC(=O)CCCCCCCCCCC(=O)NC(=O)N[C@@H](C(=O)N[C@@H]3C(=O)N4[C@@H]3SC(C)(C)[C@@H]4C(=O)O)c3ccccc3)c3ccccc3)C(=O)N2[C@H]1C(=O)O [compound 5, N,n'-dodecanedioyl-bis[6-(D(-)-α-ureidophenylacetamido)penicillanic acid]] | 50 (≈ 51.1 µM) | 3.13 (≈ 3.2 µM) | 12.5 (≈ 12.8 µM) | < 1.57 | 100 (≈ 102 µM) | – | – | –
CC1(C)S[C@@H]2[C@H](NC(=O)[C@H](NC(=O)NC(=O)CCCCCCCCCCCC(=O)NC(=O)N[C@@H](C(=O)N[C@@H]3C(=O)N4[C@@H]3SC(C)(C)[C@@H]4C(=O)O)c3ccccc3)c3ccccc3)C(=O)N2[C@H]1C(=O)O [Compound No. 6, N,n'-tridecanedioyl-bis[6-(D(-)-α-ureidophenylacetamido)penicillanic acid]] | 25 (≈ 25.2 µM) | 3.13 (≈ 3.15 µM) | 12.5 (≈ 12.6 µM) | < 1.57 | 25 (≈ 25.2 µM) | < 1 | < 1 | –
CC1(C)S[C@@H]2[C@H](NC(=O)[C@H](NC(=O)NC(=O)COc3ccc(OCC(=O)NC(=O)N[C@@H](C(=O)N[C@@H]4C(=O)N5[C@@H]4SC(C)(C)[C@@H]5C(=O)O)c4ccccc4)cc3)c3ccccc3)C(=O)N2[C@H]1C(=O)O [compound 7] | 25 (≈ 25.6 µM) | 6.25 (≈ 6.41 µM) | 25 (≈ 25.6 µM) | < 1.57 | 12.5 (≈ 12.8 µM) | – | – | –
CC1(C)S[C@@H]2[C@H](NC(=O)[C@H](N)c3ccccc3)C(=O)N2[C@H]1C(=O)O [Sodium Ampicillin, reference compound] | > 200 | < 1.57 | 50 | < 1.57 | > 200 | – | – | MIC Pseudomonas aeruginosa GN 82 [5]: > 200 µg/mL; MIC Pseudomonas aeruginosa GN 163 [5]: > 200 µg/mL; MIC Pseudomonas aeruginosa GN 221 [5]: > 200 µg/mL; MIC Pseudomonas aeruginosa GN 264 [5]: > 200 µg/mL; MIC Pseudomonas aeruginosa GN 376 [5]: > 200 µg/mL; MIC Pseudomonas aeruginosa GN 383 [5]: > 200 µg/mL; MIC Pseudomonas aeruginosa GN 1035 [5]: > 200 µg/mL; MIC Pseudomonas aeruginosa GN 1091 [5]: > 200 µg/mL; MIC Pseudomonas aeruginosa GN 2565 [5]: > 200 µg/mL; MIC Pseudomonas aeruginosa GN 2987 [5]: > 200 µg/mL; MIC Pseudomonas aeruginosa S-2 [5]: > 200 µg/mL; MIC Pseudomonas aeruginosa S-3 [5]: > 200 µg/mL; MIC Pseudomonas aeruginosa S-4 [5]: > 200 µg/mL
CC1(C)S[C@@H]2[C@H](NC(=O)[C@H](NC(=O)NC(=O)c3ccc(C(=O)c4ccc(C(=O)NC(=O)N[C@@H](C(=O)N[C@@H]5C(=O)N6[C@@H]5SC(C)(C)[C@@H]6C(=O)O)c5ccccc5)cc4)cc3)c3ccccc3)C(=O)N2[C@H]1C(=O)O [compound 9] | 25 (≈ 24.5 µM) | 3.13 (≈ 3.07 µM) | 12.5 (≈ 12.3 µM) | < 1.57 | 12.5 (≈ 12.3 µM) | – | – | –
CC1(C)S[C@@H]2[C@H](NC(=O)[C@H](NC(=O)NC(=O)c3ccc4cc(C(=O)NC(=O)N[C@@H](C(=O)N[C@@H]5C(=O)N6[C@@H]5SC(C)(C)[C@@H]6C(=O)O)c5ccccc5)ccc4c3)c3ccccc3)C(=O)N2[C@H]1C(=O)O [compound 2] | 25 (≈ 25.9 µM) | < 1.57 | 3.13 (≈ 3.24 µM) | < 1.57 | 3.15 (≈ 3.26 µM) | – | – | –
CC1(C)S[C@@H]2[C@H](NC(=O)[C@H](NC(=O)NC(=O)CCCCCCCCC(=O)NC(=O)N[C@@H](C(=O)N[C@@H]3C(=O)N4[C@@H]3SC(C)(C)[C@@H]4C(=O)O)c3ccccc3)c3ccccc3)C(=O)N2[C@H]1C(=O)O [Compound No. 4, N,N'-sebacoyl-bis[6-(D(-)-α-ureidophenylacetamido)penicillanic acid]] | 50 (≈ 52.6 µM) | 3.13 (≈ 3.29 µM) | 25 (≈ 26.3 µM) | < 1.57 | 25 (≈ 26.3 µM) | 8 | 12 | –
CC1(C)S[C@@H]2[C@H](NC(=O)[C@H](NC(=O)NC(=O)c3ccc(C(=O)NC(=O)N[C@@H](C(=O)N[C@@H]4C(=O)N5[C@@H]4SC(C)(C)[C@@H]5C(=O)O)c4ccccc4)cc3)c3ccccc3)C(=O)N2[C@H]1C(=O)O [Compound No. 1] | 12.5 (≈ 13.7 µM) | 3.13 (≈ 3.42 µM) | 25 (≈ 27.3 µM) | < 1.57 | 25 (≈ 27.3 µM) | 12 | 18 | –
CC1(C)S[C@@H]2[C@H](NC(=O)[C@H](NC(=O)NC(=O)CCC(=O)NC(=O)N[C@@H](C(=O)N[C@@H]3C(=O)N4[C@@H]3SC(C)(C)[C@@H]4C(=O)O)c3ccccc3)c3ccccc3)C(=O)N2[C@H]1C(=O)O [Compound No. 3, N,N'-succinyl-bis[6-(D(-)-α-ureidophenylacetamido)penicillanic acid]] | 25 (≈ 28.8 µM) | 12.5 (≈ 14.4 µM) | 100 (≈ 115 µM) | < 1.57 | 12.5 (≈ 14.4 µM) | 3 | 5 | LD50 [6]: > 3000 mg/kg; MIC Pseudomonas aeruginosa GN 82 [5]: 12.5 µg/mL (≈ 14.4 µM); MIC Pseudomonas aeruginosa GN 163 [5]: 25 µg/mL (≈ 28.8 µM); MIC Pseudomonas aeruginosa GN 221 [5]: 25 µg/mL (≈ 28.8 µM); MIC Pseudomonas aeruginosa GN 264 [5]: 50 µg/mL (≈ 57.7 µM); MIC Pseudomonas aeruginosa GN 376 [5]: 25 µg/mL (≈ 28.8 µM); MIC Pseudomonas aeruginosa GN 383 [5]: 50 µg/mL (≈ 57.7 µM); MIC Pseudomonas aeruginosa GN 1035 [5]: 50 µg/mL (≈ 57.7 µM); MIC Pseudomonas aeruginosa GN 1091 [5]: 25 µg/mL (≈ 28.8 µM); MIC Pseudomonas aeruginosa GN 2565 [5]: 25 µg/mL (≈ 28.8 µM); MIC Pseudomonas aeruginosa GN 2987 [5]: 25 µg/mL (≈ 28.8 µM); MIC Pseudomonas aeruginosa S-2 [5]: 25 µg/mL (≈ 28.8 µM); MIC Pseudomonas aeruginosa S-3 [5]: 25 µg/mL (≈ 28.8 µM); MIC Pseudomonas aeruginosa S-4 [5]: 25 µg/mL (≈ 28.8 µM)
CC1(C)S[C@@H]2[C@H](NC(=O)[C@H](NC(=O)NC(=O)c3ccc(CCc4ccc(C(=O)NC(=O)N[C@@H](C(=O)N[C@@H]5C(=O)N6[C@@H]5SC(C)(C)[C@@H]6C(=O)O)c5ccccc5)cc4)cc3)c3ccccc3)C(=O)N2[C@H]1C(=O)O [compound 8] | 50 (≈ 49.1 µM) | < 1.57 | 6.25 (≈ 6.13 µM) | < 1.57 | 6.25 (≈ 6.13 µM) | – | – | –
CC1(C)S[C@@H]2[C@H](NC(=O)Cc3ccccc3)C(=O)N2[C@H]1C(=O)O [Potassium Penicillin G, reference compound] | – | – | – | – | – | 100 | 100 | –
